Assay results reported in patent US20210177992A1, “ANTICANCER FLUORESCENT SUBSTANCE DERIVED FROM NATURAL MATERIALS” (SEOUL NATIONAL UNIVERSITY R&DB FOUNDATION, priority 2017, published 2021).

Columns and labels:
cancer cells = assay: Annexin V FACS, apoptotic cells in cancer cells compared with normal cells; assay type: cell-based; settings: 100 μM resveratrone glucoside, 24 hours
Protocol: (§1) Cancer cell apoptotic effects of resveratrone and resveratrone glucoside (see U.S. Pat. No. 9,708,23762) were measured by FACS using Annexin-V binding to phosphatidiylserine (PS) which exists in the inner leaflet of the cytoplasmic membrane and is exposed to the outer leaflet of cell membrane during apoptosis.
In detail, apoptosis of normal cells or cancer cells, each treated with resveratrone or resveratrone glucoside, was evaluated by measuring signals of Alexa dye-conjugated annexin V using FACS. HeLa, MCF7, SW480, SW620, and HCC1954 which are cancer cells, and NIH3T3 and MCF10A which are normal cells, each treated with 50 μM resveratrone or 100 μM resveratrone glucoside, were cultured under conditions of 37° C. and 5% CO2 for 24 hours. Thereafter, media was removed, and the cells were washed with PBS buffer twice to remove remaining resveratrone or resveratrone glucoside. The cells were collected and centrifuged to remove supernatants. Annexin-bound buffer (10 mM HEPES, 140 mM NaCl, 2.5 mM CaCl2, pH 7.4) was added and resuspended. 5 μl of Alexa Fluor 647-conjugated annexin V was added to the resuspended cells at the cell volume of 100 μl, followed by incubation for 15 minutes. 1 ml of binding buffer was added to the incubated cells, followed by centrifugation. […]

MCF10A = assay: Annexin V FACS apoptosis measurement; assay type: cell-based; settings: MCF10A normal cell, 24 hours
Protocol: as §1
(§2) In detail, apoptosis of normal cells or cancer cells, each treated with resveratrone or resveratrone glucoside, was evaluated by measuring signals of Alexa dye-conjugated annexin V using FACS. HeLa, MCF7, SW480, SW620, and HCC1954 which are cancer cells, and NIH3T3 and MCF10A which are normal cells, each treated with 50 μM resveratrone or 100 μM resveratrone glucoside, were cultured under conditions of 37° C. and 5% CO2 for 24 hours. Thereafter, media was removed, and the cells were washed with PBS buffer twice to remove remaining resveratrone or resveratrone glucoside. The cells were collected and centrifuged to remove supernatants. Annexin-bound buffer (10 mM HEPES, 140 mM NaCl, 2.5 mM CaCl2, pH 7.4) was added and resuspended. 5 μl of Alexa Fluor 647-conjugated annexin V was added to the resuspended cells at the cell volume of 100 μl, followed by incubation for 15 minutes. 1 ml of binding buffer was added to the incubated cells, followed by centrifugation. The supernatant was removed to remove remaining Alexa Fluor 647-conjugated annexin V. Thereafter, 500 μl of annexin-binding buffer was further added, and cells were passed through a cell strainer cap and stored in a round-bottom tube.

MCF7 = assay: Annexin V FACS apoptosis measurement; assay type: cell-based; settings: MCF7 cancer cell, 24 hours
Protocol: as §1, §2

cancer cell MCF7 [1] = assay: TUNEL assay; assay type: cell-based; settings: MCF7, 50 μM, 24 hours
Protocol: (§3) In detail, a cancer cell MCF7 and a normal cell MCF10A were treated with 50 μM of resveratrone or resveratrone glucoside, respectively, and incubated for 24 hours. Thereafter, the cells were treated with 0.5% PBS-Triton X-100 and incubated for 10 minutes to increase cell permeability. The cells were treated with terminal deoxynucleotide transferase and tetra-methyl-rhodamine dUTP, followed by incubation at 37° C. for 1 hour. Next, the cells were washed with PBS three times, and treated with DAPI dye for nuclear counterstaining. Apoptotic signals were observed using fluorescence images.

normal cell MCF10A [2] = assay: TUNEL assay; assay type: cell-based; settings: 50 μM, 24 hours
Protocol: as §3

zebrafish embryos = assay: Cytotoxicity and fluorescence in zebrafish embryos; assay type: in vivo; settings: 300 μM, observed at 2 hr, 20 hr, 48 hr, 72 hr
Protocol: In detail, zebrafish embryos (donated by Hyunsook Lee Lab, School of Biological Sciences, Seoul National University) were cultured, and treated with 300 μM of resveratrone or resveratrone glucoside. At 2 hr, 20 hr, 48 hr, and 72 hr after treatment, their changes were observed.

[3] = system: organoids having G12D mutation of Kras gene; assay: Apoptosis in pancreatic organoids; assay type: cell-based, mouse; settings: treatment repeated after 72 hr, read 12 hr after final treatment
Protocol: In detail, as an alternative to a pancreatic tissue of a wild-type mouse and an individual with cancer, a pancreatic tissue having G12D mutation of Kras gene was obtained from a transgenic mouse, and the pancreatic tissue was dissociated with a dissociation solution, filtered. Then, a cell pellet containing ductal cells was collected by centrifugation, and incubated with a biological substrate material. The dissociation solution containing Hank's Balanced Salt Solution (HBSS) (3 ml), collagenase P (5 mg/ml), and DNase 1 (1 Units/μl) was used in a volume of 3 ml per pancreatic tissue (Vpan=about 1.08 mg/mm^3). When the collected cell pellet was incubated with the biological substrate material, three-dimensional pancreatic organoids were prepared by incubation under conditions of 37° C. and 5% CO2 with Matrigel which is a gelatinous protein mixture secreted from the murine Engelbreth-Holm-Swarm (EHS) sarcoma. Resveratrone and resveratrone glucoside were treated using DMSO as a solvent to reach a specific concentration with respect to the culture. After 72 hr, the medium was replaced by a fresh culture medium, and the above treatment was repeated. 12 hr after final treatment, changes of the organoids were recorded using an inverted fluorescence microscope (available from Zeiss) capable of photographing […] fluorescence. […]

HeLa = assay: Annexin V FACS apoptosis measurement; assay type: cell-based; settings: HeLa cancer cell, 50 μM resveratrone, 24 hours
Protocol: as §1, §2

HCC1954 = assay: Annexin V FACS apoptosis measurement; assay type: cell-based; settings: HCC1954 cancer cell, 50 μM resveratrone, 24 hours
Protocol: as §1, §2

SW480 = assay: Annexin V FACS apoptosis measurement; assay type: cell-based; settings: SW480 cancer cell, 50 μM resveratrone, 24 hours
Protocol: as §1, §2

NIH3T3 = assay: Annexin V FACS apoptosis measurement; assay type: cell-based; settings: NIH3T3 normal cell, 50 μM resveratrone, 24 hours
Protocol: as §1, §2

SW620 = assay: Annexin V FACS apoptosis measurement; assay type: cell-based; settings: SW620 cancer cell, 50 μM resveratrone, 24 hours
Protocol: as §1, §2

cancer cell MCF7 [4] = assay: Western blotting for cleaved parp; assay type: cell-based; settings: MCF7, 50 μM, 48 hours
Protocol: (§4) In detail, a cancer cell MCF7 and a normal cell MCF10A were treated with 50 μM of resveratrone, respectively, and incubated for 48 hours. The incubated cells were harvested and lysed with a NETN buffer (150 mM NaCl, 20 mM Tris/Cl pH 8.0, 0.5% v/v NP-40, 1 mM EDTA) containing a protease inhibitor, and then conjugated with a cleaved parp antibody, and sequentially, with a secondary antibody. Then, the presence or absence thereof was examined.

normal cell MCF10A [5] = assay: Western blotting for cleaved parp; assay type: cell-based; settings: 50 μM, 48 hours
Protocol: as §4

cancer cell MCF7 [6] = assay: Cell morphology by optical microscopy; assay type: cell-based; settings: MCF7, 50 μM, 48 hours
Protocol: (§5) In detail, a normal cell MCF10A and a cancer cell MCF7 were treated with 50 μM of resveratrone, respectively, and incubated for 48 hours. After incubation, media was removed, and the cells were washed with PBS buffer three times. Changes of cell morphology in PBS buffer were observed and compared by optical microscopy.

normal cell MCF10A [7] = assay: Cell morphology by optical microscopy; assay type: cell-based; settings: 50 μM, 48 hours
Protocol: as §5

Compound | increase of number of apoptotic cells in cancer cells as compared with normal cells (cancer cells) | Apoptotic fraction (%) (MCF10A; 100 μM resveratrone glucoside) | Apoptotic fraction (%) (MCF7; 100 μM resveratrone glucoside) | TUNEL apoptotic signals (cancer cell MCF7 [1]) | TUNEL apoptotic signals (normal cell MCF10A [2]) | cytotoxicity during development of zebrafish embryos (zebrafish embryos) | apoptosis induction in organoids [3] | Apoptotic fraction (%) (HeLa) | Apoptotic fraction (%) (HCC1954) | Apoptotic fraction (%) (SW480) | Apoptotic fraction (%) (NIH3T3) | Apoptotic fraction (%) (MCF10A; 50 μM resveratrone) | Apoptotic fraction (%) (MCF7; 50 μM resveratrone) | Apoptotic fraction (%) (SW620) | Cleaved parp presence (cancer cell MCF7 [4]) | Cleaved parp presence (normal cell MCF10A [5]) | Changes of cell morphology (cancer cell MCF7 [6]) | Changes of cell morphology (normal cell MCF10A [7])
CC(=O)/C=C/c1ccc2cc(O[C@@H]3OC(CO)[C@@H](O)C(O)C3O)cc(O)c2c1 (stereo partly drawn) [resveratrone glucoside] | about 22 times | 0.7% | 15.5% | observed only in the cancer cell MCF7 | no effect on normal cells | induced no cytotoxicity | – | – | – | – | – | – | – | – | – | – | – | –
CC(=O)/C=C/c1ccc2cc(O)cc(O)c2c1 [resveratrone] | – | – | – | observed only in the cancer cell MCF7 | no effect on normal cells | induced no cytotoxicity | showed apoptosis induction | 20.0% | 39.3% | 15.5% | 2.0% | 1.0% | 26.0% | 17.4% | observed in the resveratrone-treated cancer cells | not observed in the resveratrone-treated normal cells | showed morphological features of apoptosis | clearly observed irrespective of treatment with resveratrone
